Laboratory results as given in patent US20260176290A1, “INHIBITORS OF KRAS(G12D)” (Ranok Therapeutics (Hangzhou) Co. Ltd., priority 2022, published 2026).
Each block holds one molecule with its values, some of them ahead of it.

Experiments:
[1] = system: ASPC1 pancreatic adenocarcinoma cells [homozygous G12D]; test: Cancer cell line proliferation (CellTiter-Glo), ASPC1; type: cell-based; settings: Homo sapiens, ASPC-1 cells, 72 hr, read-out: CTG(IC50), ABS-72 H(nM) ASPC-1
Procedure: (§1) The following cancer cell lines were employed: AGS gastric carcinoma [heterozygous G12D] (ATCC, CRL-1739); A-427 lung carcinoma [heterozygous G12D] (ATCC, HTB-53); ASPC1 pancreatic adenocarcinoma [homozygous G12D] (ATCC, CRL-1682) and SW1990 pancreatic adenocarcinoma [homozygous G12D] (ATCC CRL-2172). Cell lines were cultured essentially according to ATCC recommendations.
(§2) AGS, A-427, ASPC1, SW1990, and GP2D cells were plated in 96-well tissue culture plates at 4,000 cells/well and incubated at 37° C./5% CO2 for 72 hr in 100 μl of media. 3-fold serial dilutions of each test compound were prepared ranging from 20 μM to 1.02 nM. Each cell line was then treated with test compounds at various concentrations with a final concentration of 0.5% DMSO/well, and then incubated at 37° C./5% CO2 for 72 hr. 100 μl of CellTiter-Glo® Reagent (Promega Corporation, Madison, WI) was added to each well and processed according manufacturer's protocol. Results were analyzed and IC50 5 values were calculated in GraphPad 7 software.

[2] = system: SW1990 pancreatic adenocarcinoma cells [homozygous G12D]; test: Cancer cell line proliferation (CellTiter-Glo), SW1990; type: cell-based; settings: Homo sapiens, 72 hr, read-out: CTG(IC50), ABS-72 H(nM) SW1990
Procedure: as §1, §2

[3] = system: AGS gastric carcinoma cells [heterozygous G12D]; test: Cancer cell line proliferation (CellTiter-Glo), AGS; type: cell-based; settings: Homo sapiens, 72 hr, read-out: CTG(IC50), ABS-72 H(nM) AGS
Procedure: as §1, §2

[4] = system: A-427 lung carcinoma cells [heterozygous G12D]; test: Cancer cell line proliferation (CellTiter-Glo), A-427; type: cell-based; settings: Homo sapiens, A427 cells, 72 hr, read-out: CTG(IC50), ABS-72 H(nM) A427
Procedure: as §1, §2

[5] = target: T1, KRAS (G12D)/SOS1 (Homo sapiens, UniProt P01116, G12D); test: KRAS (G12D)/SOS1 homogeneous time-resolved fluorescence (HTRF) assay; type: binding; settings: absence of GTP, 4° C. for 3 hr
T1 construct: purchased Cisbio 63ADK000CB17PEH
T1 sequence (P01116 1-188 isoform P01116-2 G12D): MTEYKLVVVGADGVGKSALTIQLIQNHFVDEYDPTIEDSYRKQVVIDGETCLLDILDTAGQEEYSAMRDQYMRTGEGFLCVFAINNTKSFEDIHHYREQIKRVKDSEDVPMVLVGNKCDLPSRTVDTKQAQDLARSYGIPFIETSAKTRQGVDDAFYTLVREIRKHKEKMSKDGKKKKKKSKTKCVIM
Procedure: 3-fold serial dilutions of each test compound were prepared ranging from 20 μM to 1.02 nM. The test compound was mixed and incubated with reaction components, incubated in a sealed plate at 4° C. for 3 hr and fluorescence was measured using a PerkinElmer Envision plate reader. […]

Compound: C#Cc1c(F)ccc2cc(O)cc(-c3nc(OC)c4c(N5CC6CCC(C5)N6)nc(OCC5(CN6CC(F)C(F)C6)CC5)nc4c3F)c12 (stereo not drawn) [Example 42]
IC50 [1]: < 100 nM
IC50 [2]: < 100 nM
IC50 [3]: < 100 nM
IC50 [4]: 100 to 1000 nM
IC50 [5]: < 100 nM

IC50 [1]: 100 to 1000 nM
IC50 [2]: < 100 nM
IC50 [3]: < 100 nM
IC50 [4]: < 100 nM
Compound: C#Cc1c(F)ccc2cc(O)cc(-c3ncc4c(N5CC6CCC(C5)N6)nc(OCC56CCCN5C[C@H](F)C6)nc4c3F)c12 (stereo partly drawn) [Ref. 1, reference compound]

Compound: C#Cc1c(F)ccc2cc(O)cc(-c3nc(OC)c4c(N5CC6CCC(C5)N6)nc(OCC5(CN6CCC(C(F)(F)F)CC6)CC5)nc4c3F)c12 [Example 3]
IC50 [1]: < 100 nM
IC50 [2]: < 100 nM
IC50 [3]: < 100 nM
IC50 [4]: < 100 nM
IC50 [5]: < 100 nM

Compound: C#Cc1cccc2cc(O)cc(-c3ncc4c(N5CC6CCC(C5)N6)nc(OCC5(CN6CCC(F)(F)CC6)CC5)nc4c3F)c12 [Example 5]
IC50 [1]: < 100 nM
IC50 [3]: < 100 nM
IC50 [4]: < 100 nM
IC50 [5]: < 100 nM

Compound: C#Cc1c(F)ccc2cc(O)cc(-c3ncc4c(N5CC6CCC(C5)N6)nc(OCC5(CN6CCC([S+](C)[O-])CC6)CC5)nc4c3F)c12 (stereo not drawn) [Example 22]
IC50 [1]: > 1000 nM
IC50 [3]: > 1000 nM
IC50 [4]: > 1000 nM
IC50 [5]: 100 to 1000 nM

Compound: C#Cc1cccc2cc(O)cc(-c3ncc4c(N5CC6CCC(C5)N6)nc(OCC5(CN6CCC(F)CC6)CC5)nc4c3F)c12 [Example 7]
IC50 [1]: < 100 nM
IC50 [2]: < 100 nM
IC50 [3]: < 100 nM
IC50 [4]: < 100 nM
IC50 [5]: < 100 nM

Compound: C#Cc1c(F)ccc2cc(O)cc(-c3nc(OC)c4c(N5CC6CCC(C5)N6)nc(OCC5(CN6CCOCC6)CC5)nc4c3F)c12 [Example 33]
IC50 [1]: < 100 nM
IC50 [2]: < 100 nM
IC50 [3]: < 100 nM
IC50 [4]: 100 to 1000 nM
IC50 [5]: < 100 nM

Compound: C#Cc1c(F)ccc2cc(O)cc(-c3nc(C)c4c(N5CC6CCC(C5)N6)nc(OCC5(CN6CCC(C(F)(F)F)CC6)CC5)nc4c3F)c12 [Example 39]
IC50 [1]: < 100 nM
IC50 [2]: < 100 nM
IC50 [3]: < 100 nM
IC50 [4]: 100 to 1000 nM
IC50 [5]: < 100 nM

Compound: C#Cc1c(F)ccc2cc(O)cc(-c3ncc4c(N5CC6CCC(C5)N6)nc(OCC5(CN6CCC(C#N)CC6)CC5)nc4c3F)c12 [Example 11]
IC50 [1]: < 100 nM
IC50 [3]: < 100 nM
IC50 [4]: < 100 nM
IC50 [5]: < 100 nM

Compound: C#Cc1c(F)ccc2cc(O)cc(-c3ncc4c(N5CC6CCC(C5)N6)nc(OCC(=C)CN5CCC(F)CC5)nc4c3F)c12 [Example 27]
IC50 [1]: 100 to 1000 nM
IC50 [2]: < 100 nM
IC50 [3]: < 100 nM
IC50 [4]: 100 to 1000 nM
IC50 [5]: < 100 nM

Compound: [2H]C([2H])([2H])Oc1nc(-c2cc(O)cc3ccc(F)c(C#C)c23)c(F)c2nc(OCC3(CN4CCC(C(F)(F)F)CC4)CC3)nc(N3CC4CCC(C3)N4)c12 [Example 30]
IC50 [1]: < 100 nM
IC50 [2]: < 100 nM
IC50 [3]: < 100 nM
IC50 [4]: < 100 nM
IC50 [5]: < 100 nM

Compound: C#Cc1c(F)ccc2cc(O)cc(-c3ncc4c(N5CC6CCC(C5)N6)nc(OCC5(CN6CCC(S(=O)(=O)N(C)C)CC6)CC5)nc4c3F)c12 [Example 25]
IC50 [1]: 100 to 1000 nM
IC50 [2]: 100 to 1000 nM
IC50 [3]: < 100 nM
IC50 [4]: > 1000 nM
IC50 [5]: < 100 nM

Compound: C#Cc1c(F)ccc2cc(O)cc(-c3nc(OC)c4c(N5CC6CCC(C5)N6)nc(OCC5(CN6CC7CC7C6)CC5)nc4c3F)c12 (stereo not drawn) [Example 2]
IC50 [1]: < 100 nM
IC50 [2]: < 100 nM
IC50 [3]: < 100 nM
IC50 [4]: < 100 nM
IC50 [5]: < 100 nM

Compound: C#Cc1c(F)ccc2cc(O)cc(-c3ncc4c(N5CC6CCC(C5)N6)nc(OCC5(CN6CCC7(CC6)OCCO7)CC5)nc4c3F)c12 [Example 24]
IC50 [1]: > 1000 nM
IC50 [2]: < 100 nM
IC50 [3]: < 100 nM
IC50 [4]: 100 to 1000 nM
IC50 [5]: < 100 nM

Compound: C#Cc1c(F)ccc2cc(O)cc(-c3nc(OC)c4c(N5CC6CCC(C5)N6)nc(OCC5(CN6CC7(CC(F)C7)C6)CC5)nc4c3F)c12 [Example 50]
IC50 [1]: < 100 nM
IC50 [2]: < 100 nM
IC50 [3]: < 100 nM
IC50 [5]: < 100 nM

Compound: C#Cc1cccc2cc(O)cc(-c3ncc4c(N5CC6CCC(C5)N6)nc(OCC5(CN6CCC(OC)CC6)CC5)nc4c3F)c12 [Example 17]
IC50 [3]: < 100 nM
IC50 [4]: 100 to 1000 nM
IC50 [5]: < 100 nM

Compound: C#Cc1c(F)ccc2cc(O)cc(-c3nc(Cl)c4c(N5CC6CCC(C5)N6)nc(OCC5(CN6CCC(F)CC6)CC5)nc4c3F)c12 [Example 28]
IC50 [1]: < 100 nM
IC50 [2]: < 100 nM
IC50 [3]: < 100 nM
IC50 [4]: 100 to 1000 nM
IC50 [5]: < 100 nM

Compound: C#Cc1c(F)ccc2cc(O)cc(-c3nc(OC4CC4)c4c(N5CC6CCC(C5)N6)nc(OCC5(CN6CC7CC7C6)CC5)nc4c3F)c12 (stereo not drawn) [Example 40]
IC50 [1]: < 100 nM
IC50 [2]: < 100 nM
IC50 [3]: < 100 nM
IC50 [4]: 100 to 1000 nM
IC50 [5]: < 100 nM

Compound: C#Cc1c(F)ccc2cc(O)cc(-c3ncc4c(N5CC6CCC(C5)N6)nc(OCC5(CN6CCC(C(C)C)CC6)CC5)nc4c3F)c12 [Example 18]
IC50 [3]: < 100 nM
IC50 [4]: 100 to 1000 nM
IC50 [5]: < 100 nM

Compound: C#Cc1cccc2cc(O)cc(-c3ncc4c(N5CC6CCC(C5)N6)nc(OCC5(CN6CC(F)C6)CC5)nc4c3F)c12 [Example 6]
IC50 [1]: 100 to 1000 nM
IC50 [3]: < 100 nM
IC50 [4]: < 100 nM
IC50 [5]: < 100 nM

Compound: C#Cc1c(F)ccc2cc(O)cc(-c3nc(OC(F)F)c4c(N5CC6CCC(C5)N6)nc(OCC5(CN6CCC(F)CC6)CC5)nc4c3F)c12 [Example 35]
IC50 [1]: < 100 nM
IC50 [2]: < 100 nM
IC50 [3]: < 100 nM
IC50 [5]: < 100 nM

Compound: C#Cc1c(F)ccc2cc(O)cc(-c3nc(N)c4c(N5CC6CCC(C5)N6)nc(OCC5(CN6CCC(F)CC6)CC5)nc4c3F)c12 [Example 46]
IC50 [1]: 100 to 1000 nM
IC50 [2]: < 100 nM
IC50 [3]: < 100 nM
IC50 [5]: < 100 nM

Compound: C#Cc1c(F)ccc2cc(O)cc(-c3nc(OC)c4c(N5CC6CCC(C5)N6)nc(OCC(=C)CN5CC6CC6C5)nc4c3F)c12 (stereo not drawn) [Example 48]
IC50 [1]: < 100 nM
IC50 [2]: < 100 nM
IC50 [3]: < 100 nM
IC50 [5]: < 100 nM

Compound: C#Cc1c(F)ccc2cc(O)cc(-c3ncc4c(N5CC6CCC(C5)N6)nc(OCC5(CN6CCC(OC)CC6)CC5)nc4c3F)c12 [Example 12]
IC50 [1]: 100 to 1000 nM
IC50 [3]: < 100 nM
IC50 [4]: 100 to 1000 nM
IC50 [5]: < 100 nM

Compound: C#Cc1c(F)ccc2cc(O)cc(-c3ncc4c(N5CC6CCC(C5)N6)nc(OCC5(CN6CCC[C@H](C#N)C6)CC5)nc4c3F)c12 [Example 10]
IC50 [1]: < 100 nM
IC50 [3]: < 100 nM
IC50 [4]: < 100 nM
IC50 [5]: < 100 nM

Compound: C#Cc1c(F)ccc2cc(O)cc(-c3ncc4c(N5CC6CCC(C5)N6)nc(OCC5(CN6CC[C@H](F)C6)CC5)nc4c3F)c12 [Example 15]
IC50 [1]: < 100 nM
IC50 [3]: < 100 nM
IC50 [4]: < 100 nM
IC50 [5]: < 100 nM

Compound: C#Cc1c(F)ccc2cc(O)cc(-c3ncc4c(N5CC6CCC(C5)N6)nc(OCC5(CN6CCC[C@@H](F)C6)CC5)nc4c3F)c12 [Example 16]
IC50 [1]: < 100 nM
IC50 [3]: < 100 nM
IC50 [4]: < 100 nM
IC50 [5]: < 100 nM

Compound: C#Cc1c(F)ccc2cc(O)cc(-c3ncc4c(N5CC6CCC(C5)N6)nc(OCC5(CN6CCCC(F)(F)C6)CC5)nc4c3F)c12 [Example 9]
IC50 [1]: 100 to 1000 nM
IC50 [3]: < 100 nM
IC50 [4]: 100 to 1000 nM
IC50 [5]: < 100 nM

Compound: C#Cc1c(F)ccc2cc(O)cc(-c3nc(OC(F)(F)F)c4c(N5CC6CCC(C5)N6)nc(OCC5(CN6CCC(F)CC6)CC5)nc4c3F)c12 [Example 47]
IC50 [1]: < 100 nM
IC50 [2]: < 100 nM
IC50 [3]: < 100 nM
IC50 [5]: < 100 nM
